Assay results taken from paper PMC6271085, “Synthesis and Cytotoxic Evaluation of a Series of 2-Amino-Naphthoquinones against Human Cancer Cells” (Molecules, 2014).
Values after ≈ are worked out from the molar mass of the structure shown. Values joined by “and” are separate entries in the source; they are usually repeats but may differ in a detail not shown here. Equal values may be shown once. Read-outs that look alike come from different tables or passages of the source.

Key:
[1] = MTT cytotoxicity assay, PBMC; type: cell-based; conditions: peripheral blood mononuclear cells (PBMC); PBMC normal cells, 72h exposure
From the text: (§1) This experiment evaluated the cytotoxicity of aminonaphthoquinones (ANPQs) against human cancer cells, in vitro. This analysis is part of an initial screening for determination of the potential antitumor of these samples. The human cancer cell strains used were SF-295 (glioblastoma-human), MDAMB-435 (melanoma), HCT-8 (colon), HCT-116 (colon), HL-60 (leukemia), OVCAR-8 (ovarian cancer), NCI-H358M (human bronchoalveolar lung carcinoma) and PC3-M (highly metastatic prostate cancer cell line). All cancer cells were provided by the National Cancer Institute (Rockville, MD, USA) and were cultured in RPMI 1640 supplemented with 10% fetal bovine serum and 1% antibiotics, maintained at 37 °C and atmosphere containing 5% CO2. The peripheral blood mononuclear cells (PBMC) were isolated by gradient of density (Ficoll-Hypaque) and cultivated in RPMI 1640 medium, supplemented with bovine foetal serum (20%), antibiotic (1%) and phytohemagglutinin (4%). The cells were maintained at 37 °C and atmosphere containing 5% CO2.
(§2) The different samples of ANPQs were diluted in pure sterile DMSO. The substances were tested at a concentration of 5 µg·mL^−1. In order to determine the IC50 the substances were tested at increasing concentrations in serial dilutions (5–0.010 µg·mL^−1).
(§3) Analysis of cytotoxicity by the MTT method has been used in the screening program at the National Cancer Institute of the United States (NCI), which tests over 10,000 samples per year. It is a rapid, sensitive and inexpensive test. It was first described by Mosman as having the ability to analyze the viability and the metabolic state of cells. It is a colorimetric analysis based on conversion of the salt 3-(4,5-dimethyl-2-thiazole)-2,5-diphenyl-2H-tetrazolium bromide (MTT) to formazan-blue by the mitochondrial enzymes found only in metabolically active cells. The study of the cytotoxicity by MTT method allows easily defining the cytotoxicity but not the mechanism of action.
(§4) The cells were plated at a concentration of 0.1 × 10^6 cell mL^−1 to OVCAR-8, NCI-H358M, PC3-M, SF-295 and MDA-MB435 strains, 0.7 × 10^5 cell mL^−1 to HCT-8 and HCT-116 strains, 0.3 × 10^6 to HL-60 strain, 1.0 × 10^6 cell mL^−1 to PBMC. The plates were incubated for 72 h at 5% CO2 at 37 °C. After, they were centrifuged and the supernatant removed. Then the solution of MTT (tetrazolium salt, 150 µL) was added, and the plates were incubated for 3 h. The absorbance was read after dissolving the precipitate with 150 µL of pure DMSO in a spectrophotometer plate at 595 nm.

[2] = tested on: MDAMB-435 cells; assay: MTT cytotoxicity assay, MDAMB-435; type: cell-based; conditions: Homo sapiens; for IC50: MDA-MB-435, 72 h, MDAMB-435, 72h exposure; for inhibition at 5 µg/mL: MDA-MB-435, MDAMB-435, 5 µg/mL, 72 h, MTT, read-out: Percentage of inhibition of cell growth (GI%), average
From the text: as §1, §2, §3, §4

[3] = tested on: HL-60 (leukemia) cells; assay: MTT cytotoxicity assay, HL-60; type: cell-based; conditions: Homo sapiens; HL-60, 72h exposure
From the text: as §1, §2, §3, §4

[4] = tested on: NCI-H358M (bronchoalveolar lung carcinoma) cells; assay: MTT cytotoxicity assay, NCI-H358M; type: cell-based; conditions: Homo sapiens, 72h exposure
From the text: as §1, §2, §3, §4

[5] = tested on: SF-295 (glioblastoma) cells; assay: MTT cytotoxicity assay, SF-295; type: cell-based; conditions: Homo sapiens; for IC50: SF-295, 72 h, SF-295, 72h exposure; for inhibition at 5 µg/mL: SF-295, 5 µg/mL, 72 h, MTT, read-out: Percentage of inhibition of cell growth (GI%), average
From the text: as §1, §2, §3, §4

[6] = tested on: HCT-8 (colon) cells; assay: MTT cytotoxicity assay, HCT-8; type: cell-based; conditions: Homo sapiens; for IC50: HCT-8, 72 h, HCT-8, 72h exposure; for inhibition at 5 µg/mL: HCT-8, 5 µg/mL, 72 h, MTT, read-out: Percentage of inhibition of cell growth (GI%), average
From the text: as §1, §2, §3, §4

[7] = tested on: OVCAR-8 (ovarian cancer) cells; assay: MTT cytotoxicity assay, OVCAR-8; type: cell-based; conditions: Homo sapiens; OVCAR-8, 72h exposure
From the text: as §1, §2, §3, §4

[8] = tested on: PC3-M (prostate) cells; assay: MTT cytotoxicity assay, PC3-M; type: cell-based; conditions: Homo sapiens, PC-3M, 72 h, 72h exposure
From the text: as §1, §2, §3, §4

[9] = tested on: HCT-116 (colon) cells; assay: MTT cytotoxicity assay, HCT-116; type: cell-based; conditions: Homo sapiens; HCT-116, 72h exposure
From the text: as §1, §2, §3, §4

[10] = tested on: HL-60 (leukemia) cells; design: method as in PMID 16042338; conditions: cited from earlier work
[11] = tested on: HCT-8 (colon) cells; design: method as in PMID 16042338; conditions: cited from earlier work

Row | SMILES | IC50 at 72 h [1] | IC50 [2] | IC50 [3] | IC50 [4] | IC50 [5] | IC50 [6] | IC50 [7] | IC50 [8] | IC50 [9] | IC50 [10] | IC50 [11] | inhibition at 5 µg/mL [2] | inhibition at 5 µg/mL [5] | inhibition at 5 µg/mL [6] | melting point
1 | COc1cccc2c1C(=O)c1c(O)c3c(c(O)c1C2=O)C[C@@](O)(C(=O)CO)C[C@@H]3O[C@H]1C[C@H](N)[C@H](O)[C@H](C)O1 [Dox, Doxorubicin, reference compound] | 0.23 µg/mL and 420 nM | 0.48 µg/mL and 830 nM | 0.02 µg/mL and 30 nM | 0.9 µg/mL and 1.65 µM | 0.23 µg/mL | 0.07 µg/mL and 130 nM | 0.26 µg/mL (≈ 0.478 µM) | 0.2 µg/mL and 360 nM | 0.01 µg/mL and 20 nM |  |  |  |  |  | 
2 | Cc1cc(=O)c2c(O)c([C@@H]3O[C@H](CO)[C@@H](O)[C@H](O)[C@H]3O)c(O)cc2o1 [biflorin] |  |  |  |  |  |  |  |  |  | 1950 nM | 0.88 µg/mL (≈ 2.48 µM) |  |  |  | 
3 | O=C(O)CNC1=CC(=O)c2ccccc2C1=O [compound 2, 2N-(1,4-Dioxo-1,4-dihydronaphthalen-2-yl)acetic acid] | 5.51 µg/mL and 23.8 µM | 1.21 µg/mL and 5.23 µM | 0.7 µg/mL and 3.02 µM | > 5 µg/mL and > 21.6 µM | 0.57 µg/mL and 2.46 µM | 0.89 µg/mL and 3.84 µM | 3.89 µg/mL and 16.8 µM | > 5 µg/mL and > 21.6 µM | 1.31 µg/mL and 5.66 µM |  |  | 100% | 81.1% | 81.7% | 
4 | O=C(O)CCNC1=CC(=O)c2ccccc2C1=O [compound 3, 3N-(1,4-Dioxo-1,4-dihydronaphthalen-2-yl)propanoic acid] |  |  |  |  |  |  |  |  |  |  |  | 26.4% | 56% | 56% | 198 to 200 °C
5 | O=C1C=C(N2CCC[C@H]2C(=O)O)C(=O)c2ccccc21 [compound 4, N-(1,4-Dioxo-1,4-dihydronaphthalen-2-yl)-L-proline] |  |  |  |  |  |  |  |  |  |  |  | 36.7% | 59.3% | 59.1% | 164 to 167 °C (dec.)
6 | C[C@H](NC1=CC(=O)c2ccccc2C1=O)C(=O)O [compound 5, N-(1,4-Dioxo-1,4-dihydronaphthalen-2-yl)-L-alanine] | 7.34 µg/mL and 29.9 µM | 1990 nM | 1.05 µg/mL and 4.27 µM | 0.9 µg/mL and 3.36 µM | 2560 nM | 3380 nM | 2.36 µg/mL and 9.61 µM | 1.61 µg/mL (≈ 6.57 µM) | 1.11 µg/mL and 4.52 µM |  |  | 100% | 83.8% | 84.1% | 
7 | O=C1C=C(N[C@@H](Cc2ccccc2)C(=O)O)C(=O)c2ccccc21 [compound 6, N-(1,4-Dioxo-1,4-dihydronaphthalen-2-yl)-L-phenylalanine] | 12.2 µg/mL and 37.8 µM | 1.46 µg/mL and 4.53 µM | 1.31 µg/mL and 4.07 µM | 0.82 µg/mL and 2.54 µM | 0.65 µg/mL and 2.01 µM | 1.59 µg/mL and 4.94 µM | 1.87 µg/mL and 5.81 µM | 1.7 µg/mL and 5.28 µM | 2.15 µg/mL and 6.67 µM |  |  | 100% | 86.1% | 86.1% | 
8 | CCOC(=O)CNC1=CC(=O)c2ccccc2C1=O [compound 7, Ethyl 2N-(1,4-dioxo-1,4-dihydronaphthalen-2-yl)acetate] | 9 µg/mL and 34.7 µM | 1.33 µg/mL and 5.12 µM | 1.24 µg/mL and 4.77 µM | 0.64 µg/mL and 2.46 µM | 0.83 µg/mL and 3.19 µM | 1.84 µg/mL and 7.09 µM | 2 µg/mL and 7.7 µM | 1.63 µg/mL and 6.28 µM | 2.13 µg/mL and 8.2 µM |  |  | 100% | 99.5% | 99.5% | 93 to 95 °C
9 | CCOC(=O)CCNC1=CC(=O)c2ccccc2C1=O [compound 8, Ethyl 3N-(1,4-dioxo-1,4-dihydronaphthalen-2-yl)propanoate] |  |  |  |  |  |  |  |  |  |  |  | 11.7% | 32.7% | 28.2% | 120 to 122 °C
10 | CCOC(=O)[C@H](C)NC1=CC(=O)c2ccccc2C1=O [compound 9, Ethyl [(S) 2-(1,4-dioxo-1,4-dihydronaphthalen-2-ylamino)] propanoate] | 17.6 µg/mL and 64.3 µM | 1.18 µg/mL and 4.31 µM | 1.74 µg/mL and 6.35 µM | 0.98 µg/mL and 3.58 µM | 1.68 µg/mL and 6.13 µM | 1.33 µg/mL and 4.86 µM | 1.88 µg/mL and 6.87 µM | 2.62 µg/mL and 9.57 µM | 3.11 µg/mL and 11.4 µM |  |  | 100% | 75.1% | 75.4% | 65 to 68 °C
11 | CCOC(=O)CCCNC1=CC(=O)c2ccccc2C1=O [compound 10, Ethyl 4-(1,4-dioxo-1,4-dihydronaphthalen-2-ylamino)butanoate] |  |  |  |  |  |  |  |  |  |  |  | 59.1% | 49.2% | 49.6% | 
12 | O=C(O)CCCNC1=CC(=O)c2ccccc2C1=O [compound 11, 4-(1,4-Dioxo-1,4-dihydronaphthalen-2-ylamino)butanoic acid] |  |  |  |  |  |  |  |  |  |  |  | 11.1% | 61.2% | 61.4% | 
